# Article PMC7397144, “Alkyl and Aryl Derivatives Based on p-Coumaric Acid Modification and Inhibitory Action against Leishmania braziliensis and Plasmodium falciparum” (Molecules, 2020)
# Counter-ions that a name gives are not always drawn. Like-named read-outs stand apart in the source and are kept apart here.
# Columns and labels:
# [1] = system: Leishmania braziliensis amastigotes; experiment: In vitro antileishmanial activity, intracellular amastigotes (EGFP, flow cytometry); type: cell-based; conditions: intracellular amastigotes in U-937 cells, 72 h, mean ± SD
# Experimental: The activities of the derivatives in L. braziliensis intracellular amastigotes, transfected with the green fluorescent protein gene (MHOM/CO/88/UA301-EGFP) were evaluated. Initially, human U-937 cells at a density of 3 × 10^5 cells/mL in RPMI 1640 and 0.1 μg/mL PMA (phorbol-12-myristate-13-acetate) were dispensed in a 24-well microplate and incubated at 37 °C, and 5% CO2. At 72 h of incubation, the cells were infected with growing (stationary phase) promastigotes; 15 parasites per cell. The plates were incubated at 34 °C and 5% CO2 for 3 h and the cells then washed twice with phosphate buffer solution (PBS) to eliminate non-internalized parasites. Fresh RPMI-1640 was added to each well (1 mL) and the plates were incubated again to complete the infection. […] The cells were then removed from the bottom plate with a trypsin/EDTA solution (250 mg), and centrifuged at 1100 rpm for 10 min at 4 °C; the supernatant was discarded and the cells were washed with 1 mL of cold PBS and centrifuged twice at 1100 rpm for 10 min at 4 °C. After this final wash, the supernatant was discarded and the cells were suspended in 500 μL of PBS.
# The cells were run in a flow cytometer (Cytomics FC 500MPL), reading at 488 nm (exciting) and 525 nm (emitting) over an argon laser, and counting 10,000 events. Infected cells were determined according to green fluorescence events (parasites). Infected cells exposed to the control drug (amphotericin B) were used as antileishmanial activity controls (positive control). Infected cells incubated in the absence of any compound or drug were used as infection controls (negative control). Non-specific fluorescence was corrected by subtracting fluorescence from unstained cells. All determinations were performed in triplicate, in at least two independent experiments.
# (§1) Data for percentages of parasite reduction or inhibition were used to calculate the EC50 using Probit linear regression modeling. […] The selectivity index (SI) was calculated dividing cytotoxic activity by anti-parasitic activity using the following formula: SI = CL50 ÷ CE50.
# [2] = system: Plasmodium falciparum 3D7; experiment: In vitro antiplasmodial activity (LDH, Malstat); type: cell-based; conditions: for EC50: Plasmodium falciparum
# Experimental: Cultures of asynchronous P. falciparum 3D7 strains were adjusted for 0.5% parasitemia and 1% hematocrit in RPMI medium enriched with 3% lipid-rich bovine serum albumin—Albumax II. […] The plates were incubated for 48 h at 37 °C in an atmosphere of N2 (90%), CO2 (5%) and O2 (5%). After incubation, the parasites were harvested and subjected to three 20-min freeze-thaw cycles. At the same time, 100 µL of Malstat reagent (400 µL of Triton X-100 in 80 mL of deionized water, 4 g of L-lactate, 1.32 g of Tris buffer, and 0.022 g of adenine acetylpyridine dinucleotide in 200 mL of deionized water; pH 9.0), and […] of NBT/PES solution (0.16 g of nitroblue-tetrazolium salt, and 0.08 g of phenazine sulfate in 100 mL of deionized water) were added to each well of an additional 96-well plate. After freezing and thawing cycles, the culture in each of the wells on the first plate was re-suspended by pipetting, and 15 µL was removed from each well and added to the corresponding well on the additional plate (containing the Malstat and NBT/PES reagents). After one hour of incubation in the dark, the color development of the lactate dehidrogenase (LDH) reaction was read on a spectrofluorometer (Varioskan, Thermo, Waltham, MA, USA) at 650 nm. The color intensity in each experimental condition was recorded in fluorescent units (F.U). Non-specific fluorescence was corrected by subtracting F.U. from the blanks. The entire experiment was performed in triplicate in at least two independent experiments. Chloroquine (QC) was used as a positive control and the culture medium was used as a negative control.
# The antiplasmodial activity of each compound was evaluated through reduction in parasite growth, calculated according to Equation (2):(2) % parasite inhibition=100−F.U exposed parasites÷F.U non exposed parasites × 100
# as §1
# in vitro = experiment: in vitro
# Experimental: The compounds were analyzed for viability of the human pro-monocytic cell line U-937 (ATCC CRL- 1593.2TM) using an MTT (3-(4,5-dimethylthiazol-2-yl)-2,5- diphenyltetrazolium bromide) assay based on a previously described methodology, assessing cytotoxic activity. The resulting compounds were determined by measuring mitochondrial dehydrogenase activity, adding […] of MTT solution (0.5 mg/mL) and incubation at 37 °C for 3 h. Cell viability was defined from the quantity of formazan produced and the intensity of color (absorbance) registered through optical density (O.D.) obtained at 570 nm in a (VarioskanTM Flash Multimode Reader—Thermo Scientific, Waltham, MA, USA) spectrophotometer. As a negative control, isolated cells were cultured (without the compounds) to observe viability. […] We performed two independent tests with each concentration, in triplicate.
# Cytotoxicity was determined according to the viability and mortality percentages obtained in each experimental condition (synthesized compounds, amphotericin B, benznidazole, chloroquine, and culture medium). Viability percentages were first calculated using Equation (1). (1) % Viability=O.D exposed cells÷O.D Control cells × 100 Then, cell growth inhibition percentage was calculated as 100 - % viability.
# The cell growth inhibition percentages were used to calculate median lethal concentrations (LC50) using Probit analysis.
# P. falciparum = system: P. falciparum; set-up: method as in ref 42 = [42]; 42. Sudi S. Hassan W.R.M. Ali A.H. Basir R. Embi N. Sidek H.M. A derivative of cinnamic acid, methyl-4-hydroxycinnamate modulates inflammatory cytokine levels in malaria-infected mice through inhibiti; conditions: cited from earlier work
# Trypanosoma brucei = system: Trypanosoma brucei; set-up: method as in Steverding et al. (2016) 51; conditions: ref Steverding et al. (2016) 51; cited from earlier work
# L. amazonensis = system: L. amazonensis; set-up: method as in ref 41 = [41]; 41. Monzote L. Córdova W.H.P. García M. Piñón A. Setzer W.N. In-vitro and In-vivo Activities of Phenolic Compounds Against Cutaneous Leishmaniasis Rec. Nat. Prod. 2016 10 269 276; conditions: cited from earlier work
# Leishmania amazonensis = system: Leishmania amazonensis; set-up: method as in Lima et al. (2016) 46; conditions: ref Lima et al. (2016) 46; cited from earlier work
# [3] = 3D7, 48 h, read-out: Plasmodium falciparum EC50, 3D7 strain, 48 h, mean ± SD
Structure (SMILES),EC50 [1] [µg/mL],"EC50 [2, 3] [µg/mL]",CC50 (in vitro) [µg/mL],also measured
"CC(C)OC(=O)/C=C/c1ccc(O)cc1 [Compound 4, isopropyl p-coumarate]",28.33 ± 0.27,106 ± 9.97,96.2 ± 18.9,–
"Cc1ccc(COC(=O)/C=C/c2ccc(O)cc2)cc1 [Compound 11, 4-methylbenzyl p-coumarate]",5.69 ± 0.3,84 ± 15.3,20.8 ± 3.47,–
"CCCCCOC(=O)/C=C/c1ccc(O)cc1 [Compound 7, pentyl p-coumarate]",32 ± 5.05,156 ± 8.2,16.1 ± 3.81,"Plasmodium falciparum EC50 ([2]; 3D7 strain, 48 h, mean ± SD): 95.48 ± 1.84 µg/mL"
"COC(=O)/C=C/c1ccc(O)cc1 [Compound 1, methyl p-coumarate]",8.28 ± 0.14,–,6.26 ± 0.03,"EC50 ([2]; 3D7 strain, 48 h, mean ± SD, read-out: Plasmodium falciparum EC50): 64.6 ± 2.89 µg/mL; activity against P. falciparum (P. falciparum): presents activity"
"C[C@@H]1[C@H](O)[C@@H](C)/C=C/C=C/C=C/C=C/C=C/C=C/C=C/[C@H](O[C@@H]2O[C@H](C)[C@@H](O)[C@H](N)[C@@H]2O)C[C@@H]2O[C@](O)(C[C@@H](O)C[C@@H](O)[C@H](O)CC[C@@H](O)C[C@@H](O)CC(=O)O[C@H]1C)C[C@H](O)[C@H]2C(=O)O [AMB, amphotericin B, reference compound]",0.3 ± 0.07,–,38.4 ± 6.3,–
"CCN(CC)CCCC(C)Nc1ccnc2cc(Cl)ccc12 (stereo not drawn) [CQ, chloroquine diphosphate salt, reference compound]",–,–,–,"EC50 ([2]; 3D7, 48 h, read-out: Plasmodium falciparum EC50): 3.35 ± 0.39 µg/mL"
"CCCCCCOC(=O)/C=C/c1ccc(O)cc1 [Compound 9, hexyl p-coumarate]",4.14 ± 0.55,206 ± 46.4,11.2 ± 0.86,–
"CCCCOC(=O)/C=C/c1ccc(O)cc1 [Compound 6, butyl p-coumarate]",323 ± 50,199 ± 7.9,30.9 ± 6.32,–
"CC(C)c1ccc(COC(=O)/C=C/c2ccc(O)cc2)cc1 [Compound 12, 4-isopropylbenzyl p-coumarate]",11.2 ± 0.2,93.7 ± 14.2,35.2 ± 13.9,–
"COCCOC(=O)/C=C/c1ccc(O)cc1 [Compound 5, methoxy-ethyl p-coumarate]",87 ± 18.1,98.7 ± 17.7,127 ± 16.5,–
CC(C)CCOC(=O)/C=C/c1ccc(O)c(O)c1 [isopentyl caffeate],–,–,–,antiparasitic activity against Trypanosoma brucei (Trypanosoma brucei): antiparasitic activity
"CC(C)CCOC(=O)/C=C/c1ccc(O)cc1 [Compound 8, isopentyl p-coumarate]",6.02 ± 0.22,95.5 ± 1.84,19.6 ± 1.76,"Plasmodium falciparum EC50 ([2]; 3D7 strain, 48 h, mean ± SD): 156.37 ± 8.2 µg/mL"
"CCCCCCCCCCCCOC(=O)/C=C/c1ccc(O)cc1 [Compound 10, dodecyl p-coumarate]",16.3 ± 0.49,81.2 ± 8.54,15.4 ± 1.84,–
"CCCOC(=O)/C=C/c1ccc(O)cc1 [Compound 3, propyl p-coumarate]",6.3 ± 1.14,139 ± 4.07,11.9 ± 0.8,–
"CCOC(=O)/C=C/c1ccc(O)cc1 [Compound 2, ethyl p-coumarate]",4.91 ± 0.64,110 ± 30.8,1.06 ± 1.08,–
O=C(O)C=Cc1ccc(O)cc1 [p-Coumaric acid],–,–,–,antiparasitic activity against L. amazonensis (L. amazonensis): presents antiparasitic activity
CCOC(=O)/C=C/c1ccc(O)c(O)c1 [ethyl caffeate],–,–,–,activity against Leishmania amazonensis (Leishmania amazonensis): no activity
